Reference: patent US4795749A, “Imidazopyrroloquinoxaline compounds” (A/S Ferrosan, priority 1985, dated 1989)

Test system: benzodiazepine receptors
Test: in vivo displacement of 3H-flunitrazepam from brain benzodiazepine receptors
Settings: female mice, intraperitoneal, 15 min before 3H-FNM i.v.; forebrain 20 min after 3H-FNM
Text: The pharmaceutical properties of the compounds of the invention can be illustrated by determining their capability for displacing radioactivity labelled flunitrazepam from benzodiazepine receptors.
The displacement activity of the compounds of the invention may be found by determining the ED50 value. The ED50 value represents the dose (mg/kg) of a test substance which causes the specific binding of flunitrazepam to benzodiazepine receptors in a living brain to be reduced to 50% of the control value.
Such an in vivo test is carried out as follow:
Principle. Twenty minutes after a dose of ^3 H-flunitrazepam (^3 H-FNM) (200 μCi/kg, i.v.) the amount of specific ^3 H-FNM binding to brain benzodiazepine receptors has reached its maximum value.
Test procedure. […] The amounts of radioactivity on the filters are determined by conventional scintillation counting. […]
Results. The ED50 value is determined from dose response curves. If only one dose of test substance is administered the ED50 value is calculated as follows, provided that the inhibition of specific binding is within the range of 25-75%: [formula] where Co is specific binding in controls and Cx is specific binding in mice treated with test substance.

c1ccc2c(c1)N1CCCC1c1c(-c3noc(C4CC4)n3)ncn1-2 (stereo not shown)
in vivo ED50 (dose reducing specific 3H-flunitrazepam binding to brain benzodiazepine receptors to 50% of the control value): 5.1 mg/kg
